We go through 3 compounds from publication PMC5119973 (Cancer Medicine, 2016).

The nature of data set [1]: Plasma protein binding in vitro (Transil), human plasma. The class given is in vitro ADME. To be noted: for Proportion of protein‐bound drug / Unbound fraction, fold lower than that of regorafenib / Major plasma protein to which the compound was bound: human plasma; for Major plasma protein to which the compound was bound: data not shown; for Unbound fraction, fold lower in human than in murine plasma: human versus murine plasma. The method, then:
A radioactivity analysis was performed by liquid scintillation counting. […] All compounds were tested for stability at the incubation conditions used.

Another data set deals with T1, CDK11 (Homo sapiens, UniProt Q9BWU1).
T1 construct: purchased DiscoveRx (KINOMEscan service)
Put plainly: KINOMEscan active-site competitive binding assay. Particulars: slash = two separate measurements.

The next data set has as its target T2, EPHA8 (Homo sapiens, UniProt P29322).
T2 construct: purchased DiscoveRx (KINOMEscan service)
T2 sequence (P29322 28-1005): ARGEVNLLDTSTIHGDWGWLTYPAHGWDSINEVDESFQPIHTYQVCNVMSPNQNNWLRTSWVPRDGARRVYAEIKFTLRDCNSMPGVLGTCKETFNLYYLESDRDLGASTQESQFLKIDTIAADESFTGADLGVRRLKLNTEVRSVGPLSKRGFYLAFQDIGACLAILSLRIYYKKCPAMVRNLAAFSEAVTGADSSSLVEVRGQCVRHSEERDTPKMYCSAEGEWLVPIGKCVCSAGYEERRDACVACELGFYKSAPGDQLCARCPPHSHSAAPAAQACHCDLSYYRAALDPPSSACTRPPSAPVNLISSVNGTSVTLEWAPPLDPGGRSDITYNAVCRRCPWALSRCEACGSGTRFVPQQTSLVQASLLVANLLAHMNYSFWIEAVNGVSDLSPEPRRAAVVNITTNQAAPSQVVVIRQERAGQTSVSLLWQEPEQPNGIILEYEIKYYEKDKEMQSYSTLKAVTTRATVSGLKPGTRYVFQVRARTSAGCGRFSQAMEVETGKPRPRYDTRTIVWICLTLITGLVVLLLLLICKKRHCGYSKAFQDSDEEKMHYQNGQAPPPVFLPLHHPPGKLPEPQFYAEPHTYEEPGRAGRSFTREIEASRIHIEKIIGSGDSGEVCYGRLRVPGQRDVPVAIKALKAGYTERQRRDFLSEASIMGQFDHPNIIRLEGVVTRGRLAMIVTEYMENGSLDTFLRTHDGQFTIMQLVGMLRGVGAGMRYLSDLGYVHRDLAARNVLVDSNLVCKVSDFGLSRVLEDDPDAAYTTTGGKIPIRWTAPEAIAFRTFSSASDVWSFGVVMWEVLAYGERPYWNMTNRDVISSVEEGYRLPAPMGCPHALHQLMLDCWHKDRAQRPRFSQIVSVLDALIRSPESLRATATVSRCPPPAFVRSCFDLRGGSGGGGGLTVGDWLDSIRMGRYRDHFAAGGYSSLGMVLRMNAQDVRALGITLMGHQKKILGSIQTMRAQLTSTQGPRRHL
Put plainly: KINOMEscan active-site competitive binding assay. Particulars: slash = two separate measurements.

In another data set the target is T3, CSF1R (Homo sapiens, UniProt P07333).
T3 construct: purchased DiscoveRx (KINOMEscan service)
Kind of data set: KINOMEscan active-site competitive binding assay. To be noted: slash = two separate measurements.

In the next data set the target is T4, TAOK3 (Homo sapiens, UniProt Q9H2K8).
T4 construct: purchased DiscoveRx
T4 sequence (Q9H2K8 1-898): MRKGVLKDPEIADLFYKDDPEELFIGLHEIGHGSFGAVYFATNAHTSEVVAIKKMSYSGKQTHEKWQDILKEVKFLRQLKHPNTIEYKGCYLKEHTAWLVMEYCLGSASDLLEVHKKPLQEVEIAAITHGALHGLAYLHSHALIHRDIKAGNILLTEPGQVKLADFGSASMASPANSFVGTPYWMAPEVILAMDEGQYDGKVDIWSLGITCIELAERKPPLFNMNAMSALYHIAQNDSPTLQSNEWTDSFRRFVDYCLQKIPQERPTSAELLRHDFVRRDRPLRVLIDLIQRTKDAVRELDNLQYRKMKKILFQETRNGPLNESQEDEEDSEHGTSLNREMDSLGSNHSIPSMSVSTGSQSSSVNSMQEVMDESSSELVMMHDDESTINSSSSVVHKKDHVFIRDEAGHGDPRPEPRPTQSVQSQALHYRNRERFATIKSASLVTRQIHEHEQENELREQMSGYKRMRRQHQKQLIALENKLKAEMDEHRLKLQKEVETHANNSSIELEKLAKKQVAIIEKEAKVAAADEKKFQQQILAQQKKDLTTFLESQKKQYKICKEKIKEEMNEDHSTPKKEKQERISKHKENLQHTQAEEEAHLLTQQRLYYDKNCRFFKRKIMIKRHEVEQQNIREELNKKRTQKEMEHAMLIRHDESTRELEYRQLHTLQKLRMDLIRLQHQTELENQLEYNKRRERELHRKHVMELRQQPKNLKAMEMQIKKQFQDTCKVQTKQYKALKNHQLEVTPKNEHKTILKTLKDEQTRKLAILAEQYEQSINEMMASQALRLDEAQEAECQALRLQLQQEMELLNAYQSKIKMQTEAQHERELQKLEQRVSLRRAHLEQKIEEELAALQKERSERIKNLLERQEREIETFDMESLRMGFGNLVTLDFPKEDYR
Put plainly: KINOMEscan active-site competitive binding assay. Particulars: slash = duplicate values.

The target in the next data set is T5, LOK (Homo sapiens, UniProt O94804).
T5 construct: purchased DiscoveRx (KINOMEscan service)
Kind of data set: KINOMEscan active-site competitive binding assay. To be noted: slash = two separate measurements.

The next data set addresses T6, CDK8 (Homo sapiens, UniProt P49336).
T6 construct: purchased DiscoveRx (KINOMEscan service)
Kind of data set: KINOMEscan active-site competitive binding assay. To be noted: slash = two separate measurements.

Data set [2] in a line: Calculated free drug concentration in human plasma. The class given is in vivo.
A further data set deals with T7, TAK1 (Homo sapiens, UniProt O43318).
T7 construct: purchased DiscoveRx
T7 sequence (O43318 1-606): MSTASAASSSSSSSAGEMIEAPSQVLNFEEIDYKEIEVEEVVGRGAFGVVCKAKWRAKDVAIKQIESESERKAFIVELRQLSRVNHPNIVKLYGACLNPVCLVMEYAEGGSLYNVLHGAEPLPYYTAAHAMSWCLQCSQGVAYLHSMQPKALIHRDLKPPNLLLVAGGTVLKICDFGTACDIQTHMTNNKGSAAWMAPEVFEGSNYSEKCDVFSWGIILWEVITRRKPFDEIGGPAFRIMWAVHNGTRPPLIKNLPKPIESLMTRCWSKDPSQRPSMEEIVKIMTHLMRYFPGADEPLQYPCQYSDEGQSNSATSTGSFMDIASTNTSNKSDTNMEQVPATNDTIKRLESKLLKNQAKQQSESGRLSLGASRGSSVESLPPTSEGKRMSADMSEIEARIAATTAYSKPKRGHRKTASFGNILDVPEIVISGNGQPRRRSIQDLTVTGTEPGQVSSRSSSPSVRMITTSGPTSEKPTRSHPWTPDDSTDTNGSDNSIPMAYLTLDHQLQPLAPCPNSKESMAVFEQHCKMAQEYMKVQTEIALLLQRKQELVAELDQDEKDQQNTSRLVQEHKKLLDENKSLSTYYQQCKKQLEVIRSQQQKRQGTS
Put plainly: KINOMEscan active-site competitive binding assay. To be noted: slash = two separate measurements.

The next data set deals with T8, DDR1 (Homo sapiens, UniProt Q08345).
T8 construct: purchased DiscoveRx (KINOMEscan service)
Kind of data set: KINOMEscan active-site competitive binding assay. Particulars: slash = two separate measurements.

[3] abbreviates: human, male, plasma, arithmetic mean ± SD.

pKd: −log10 of the molar value. Several values for one entry are separate records, joined by “and”; a condition that tells them apart may be missing. Identical values can stand only once.

T5 sequence (O94804 whole entry): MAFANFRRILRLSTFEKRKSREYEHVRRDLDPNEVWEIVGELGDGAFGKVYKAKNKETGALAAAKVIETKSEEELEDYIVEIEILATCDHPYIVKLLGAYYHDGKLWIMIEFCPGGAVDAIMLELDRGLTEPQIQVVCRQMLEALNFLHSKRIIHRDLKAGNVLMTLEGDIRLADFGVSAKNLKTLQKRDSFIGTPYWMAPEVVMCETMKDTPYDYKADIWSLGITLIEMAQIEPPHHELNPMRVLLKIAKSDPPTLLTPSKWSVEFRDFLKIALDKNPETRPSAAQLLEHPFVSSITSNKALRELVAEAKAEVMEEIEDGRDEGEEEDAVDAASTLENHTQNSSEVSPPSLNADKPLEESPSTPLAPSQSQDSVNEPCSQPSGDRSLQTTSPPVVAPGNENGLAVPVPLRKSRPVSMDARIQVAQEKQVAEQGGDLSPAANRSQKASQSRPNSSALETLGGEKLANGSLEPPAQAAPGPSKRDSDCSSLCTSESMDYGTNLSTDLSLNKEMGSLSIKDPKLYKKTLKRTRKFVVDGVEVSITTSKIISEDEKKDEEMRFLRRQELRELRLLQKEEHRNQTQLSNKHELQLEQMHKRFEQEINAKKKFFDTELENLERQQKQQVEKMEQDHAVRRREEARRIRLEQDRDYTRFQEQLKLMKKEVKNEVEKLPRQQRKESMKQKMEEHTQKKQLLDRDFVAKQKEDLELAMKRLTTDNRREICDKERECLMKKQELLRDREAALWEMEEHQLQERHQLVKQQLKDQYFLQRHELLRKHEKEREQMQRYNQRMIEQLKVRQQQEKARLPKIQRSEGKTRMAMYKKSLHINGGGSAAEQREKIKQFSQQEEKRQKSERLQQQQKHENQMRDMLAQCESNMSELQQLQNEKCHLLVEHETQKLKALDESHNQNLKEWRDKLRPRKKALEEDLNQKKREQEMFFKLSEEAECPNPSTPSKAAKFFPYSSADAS
T3 sequence (P07333 20-972): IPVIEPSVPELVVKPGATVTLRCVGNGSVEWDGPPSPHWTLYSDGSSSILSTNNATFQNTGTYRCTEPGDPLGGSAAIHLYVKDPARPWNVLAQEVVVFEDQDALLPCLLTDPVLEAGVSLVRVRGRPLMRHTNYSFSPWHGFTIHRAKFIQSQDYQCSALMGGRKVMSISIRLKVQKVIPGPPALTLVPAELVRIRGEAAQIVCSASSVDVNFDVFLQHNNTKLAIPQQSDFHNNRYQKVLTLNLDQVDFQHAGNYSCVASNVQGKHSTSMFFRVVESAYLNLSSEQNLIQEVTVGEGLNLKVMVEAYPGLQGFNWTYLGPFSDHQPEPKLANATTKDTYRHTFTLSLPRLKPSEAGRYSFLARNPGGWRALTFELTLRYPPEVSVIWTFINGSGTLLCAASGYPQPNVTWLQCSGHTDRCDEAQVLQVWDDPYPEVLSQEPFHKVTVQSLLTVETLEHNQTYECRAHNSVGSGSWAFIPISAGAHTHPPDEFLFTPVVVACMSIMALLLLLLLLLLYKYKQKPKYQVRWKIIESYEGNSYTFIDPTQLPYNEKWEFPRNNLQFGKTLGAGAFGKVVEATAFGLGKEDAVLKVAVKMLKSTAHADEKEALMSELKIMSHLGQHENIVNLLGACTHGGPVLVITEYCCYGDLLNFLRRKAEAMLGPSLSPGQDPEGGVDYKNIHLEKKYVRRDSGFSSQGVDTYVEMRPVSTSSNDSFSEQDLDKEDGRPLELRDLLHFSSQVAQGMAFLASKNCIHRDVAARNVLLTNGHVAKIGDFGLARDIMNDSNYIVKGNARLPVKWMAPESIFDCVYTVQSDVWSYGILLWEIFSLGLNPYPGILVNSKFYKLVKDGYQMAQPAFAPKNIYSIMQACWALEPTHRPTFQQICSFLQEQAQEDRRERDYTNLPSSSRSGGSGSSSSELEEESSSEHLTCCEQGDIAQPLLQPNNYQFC
T1 sequence (Q9BWU1 whole entry): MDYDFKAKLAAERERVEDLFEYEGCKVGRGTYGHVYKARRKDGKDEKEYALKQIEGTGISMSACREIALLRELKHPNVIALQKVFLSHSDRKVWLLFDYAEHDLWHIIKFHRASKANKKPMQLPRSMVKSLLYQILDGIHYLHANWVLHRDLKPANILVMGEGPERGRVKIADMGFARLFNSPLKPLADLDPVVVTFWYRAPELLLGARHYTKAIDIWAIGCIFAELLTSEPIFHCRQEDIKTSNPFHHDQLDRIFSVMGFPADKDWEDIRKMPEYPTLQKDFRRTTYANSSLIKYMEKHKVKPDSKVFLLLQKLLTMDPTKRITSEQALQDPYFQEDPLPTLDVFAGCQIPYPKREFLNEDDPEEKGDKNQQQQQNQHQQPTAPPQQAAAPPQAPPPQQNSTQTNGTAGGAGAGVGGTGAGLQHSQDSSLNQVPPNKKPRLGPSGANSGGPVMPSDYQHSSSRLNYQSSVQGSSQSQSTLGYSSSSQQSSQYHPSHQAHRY
T8 sequence (Q08345 19-913): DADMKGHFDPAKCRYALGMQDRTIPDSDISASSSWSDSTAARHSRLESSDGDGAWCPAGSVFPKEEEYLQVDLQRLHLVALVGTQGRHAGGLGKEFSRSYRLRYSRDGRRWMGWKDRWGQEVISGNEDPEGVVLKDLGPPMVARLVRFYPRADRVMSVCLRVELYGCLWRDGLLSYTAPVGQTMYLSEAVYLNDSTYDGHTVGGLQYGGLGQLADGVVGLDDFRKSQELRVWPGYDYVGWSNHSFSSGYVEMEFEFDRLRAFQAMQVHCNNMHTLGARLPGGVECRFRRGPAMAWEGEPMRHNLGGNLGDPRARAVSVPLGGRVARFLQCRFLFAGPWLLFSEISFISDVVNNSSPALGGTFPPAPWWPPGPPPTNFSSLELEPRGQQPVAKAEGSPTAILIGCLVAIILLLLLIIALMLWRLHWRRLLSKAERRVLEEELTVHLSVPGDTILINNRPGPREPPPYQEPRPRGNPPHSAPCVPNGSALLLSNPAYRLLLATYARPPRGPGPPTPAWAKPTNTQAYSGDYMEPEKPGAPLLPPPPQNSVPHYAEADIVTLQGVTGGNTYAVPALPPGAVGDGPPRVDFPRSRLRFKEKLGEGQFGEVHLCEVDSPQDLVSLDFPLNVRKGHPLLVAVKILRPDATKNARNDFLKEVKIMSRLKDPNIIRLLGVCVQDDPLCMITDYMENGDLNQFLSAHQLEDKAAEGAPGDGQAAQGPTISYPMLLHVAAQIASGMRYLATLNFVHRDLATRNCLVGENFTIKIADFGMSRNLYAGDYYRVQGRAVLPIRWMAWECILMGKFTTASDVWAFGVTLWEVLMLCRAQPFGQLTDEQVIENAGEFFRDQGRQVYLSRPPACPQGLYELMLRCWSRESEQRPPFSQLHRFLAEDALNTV
T6 sequence (P49336 whole entry): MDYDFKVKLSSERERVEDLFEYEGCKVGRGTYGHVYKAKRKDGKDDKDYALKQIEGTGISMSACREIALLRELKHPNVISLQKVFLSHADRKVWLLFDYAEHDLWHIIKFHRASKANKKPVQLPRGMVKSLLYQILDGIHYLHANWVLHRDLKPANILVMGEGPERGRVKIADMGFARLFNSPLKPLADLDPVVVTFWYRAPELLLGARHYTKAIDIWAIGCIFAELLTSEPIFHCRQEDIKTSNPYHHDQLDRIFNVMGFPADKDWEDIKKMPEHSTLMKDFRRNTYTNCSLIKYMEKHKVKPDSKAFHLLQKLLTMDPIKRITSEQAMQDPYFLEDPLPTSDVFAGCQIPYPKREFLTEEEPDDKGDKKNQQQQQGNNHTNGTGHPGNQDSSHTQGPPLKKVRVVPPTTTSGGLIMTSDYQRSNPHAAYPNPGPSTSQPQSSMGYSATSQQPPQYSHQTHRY

The pKd is the Kd on a negative log10 scale, so that one unit is a factor of ten. For the compound `CNC(=O)c1cc(Oc2ccc(NC(=O)Nc3ccc(Cl)c(C(F)(F)F)c3)c(F)c2)cc[n+]1[O-]` [M‐2], the “Proportion of protein‐bound drug” value in data set [1] is given as “more than 99%”. In data set [1], the “Unbound fraction, fold lower than that of regorafenib” value is on record as “about 2.5 fold”. Besides, in [1], the “Major plasma protein to which the compound was bound” value is given as “albumin”. The “Unbound fraction, fold lower in human than in murine plasma” value in data set [1] was ~ 5 fold. For the same compound, the “Unbound fraction (%)” value in data set [1] (setting [3]) amounted to 0.188 ± 0.004%. Moreover, the pKd at CDK11 was 7.48; at EPHA8 it was 7.21; on CSF1R, 7.68; on TAOK3 it was 7.03 and 7.11; at LOK it was 8.03; on CDK8 it was 7.37. Further, the results for the negative logarithm of the Kd (pKd) on TAK1 and at DDR1 were 7.10 and 9.30, respectively. For the same compound, in [2], the “Calculated free drug concentration” value is 13.5 nmol/L.

By fraction unbound is commonly meant free concentration divided by total concentration. Read a high fraction unbound as much free substance. For `CNC(=O)c1cc(Oc2ccc(NC(=O)Nc3ccc(Cl)c(C(F)(F)F)c3)c(F)c2)ccn1` [Regorafenib, reference compound], the “Proportion of protein‐bound drug” value in data set [1] is listed as “more than 99%”. In addition, the “Major plasma protein to which the compound was bound” value in data set [1] is listed as “albumin”. For the same compound, the “Unbound fraction (%)” value in [1] (setting [3]) is given as 0.488 ± 0.091%. For the same compound, in [1] (male, human, plasma, arithmetic mean ± SD), the fraction unbound was about 0.005. For the same compound, the pKd at CDK11 is 7.17 and 7.37; on EPHA8, 6.85 and 6.89; at CSF1R it was 7.37 and 8.00; on TAOK3, 6.70 and 6.54; at LOK, 7.82 and 8.00; on CDK8, 7.00 and 7.14. For the same compound, the negative logarithm of the Kd (pKd) at TAK1 was 6.77 and 6.59; on DDR1 it was 9.05 and 9.10. Moreover, in data set [2], the “Calculated free drug concentration” value is 42.1 nmol/L.

Consider `NC(=O)c1cc(Oc2ccc(NC(=O)Nc3ccc(Cl)c(C(F)(F)F)c3)c(F)c2)cc[n+]1[O-]` [M‐5], for which the “Proportion of protein‐bound drug” value in data set [1] is “more than 99%”. For the same compound, the “Unbound fraction, fold lower than that of regorafenib” value in [1] is recorded as “approximately 10 fold”. The “Major plasma protein to which the compound was bound” value in [1] is reported as “albumin”. Further, in data set [1], the “Unbound fraction, fold lower in human than in murine plasma” value is reported as ~ 8 fold. For the same compound, in [1] (setting [3]), the “Unbound fraction (%)” value is recorded as 0.053 ± 0.013%. Moreover, the negative logarithm of the Kd (pKd) was 7.07 on CDK11; 7.14 at EPHA8; 7.89 on CSF1R; 6.35 at TAOK3; 7.96 at LOK; 6.85 at CDK8. The negative logarithm of the Kd (pKd) at TAK1 was 6.92; on DDR1, 9.40. In data set [2], the “Calculated free drug concentration” value is on record as 3.4 nmol/L.
